Measured values from patent US4345984A, “Novel prostaglandin analogues and process for making same” (The Procter & Gamble Company, priority 1981, dated 1982).
Read-outs that look alike come from different tables or passages of the source.

System: stomach mucosa
Experiment: cytoprotective activity in rats (ethanol-induced stomach mucosa lesions)
Format: in vivo, Sprague-Dawley rats
Conditions: for response vs control in vivo at 5 mg/kg / inhibition in vivo at 5 mg/kg: Rattus norvegicus, 1 h; for response vs control in vivo at 5 mg/kg / inhibition in vivo at 5 mg/kg / % Protection: 5 mg per kg oral, half hour before absolute ethanol 10 ml per kg oral; for response vs control in vivo at 5 mg/kg: average lesion length as % of control animals; for inhibition in vivo at 5 mg/kg: lesions vs control, read-out: LESIONS % reduction; for cytoprotective activity (in words): comparison of enantiomers and racemate, Table III; for % Protection: optically pure compounds of Example XIX
Description: A number of the 7-oxa prostanoic acid derivatives has been tested for cytoprotective activity in rats. In this test, Sprague-Dawley rats are fasted for 24 hours prior to the pretreatment. The pretreatment is oral administration of a 5 mg per kg body weight dose of the prostanoid in 2.5 ml of a vehicle consisting of Tween 80 (0.75%) and the balance water. The control animals are given 2.5 ml of the vehicle, without prostanoid. A half hour after the pretreatment, absolute ethanol is administered orally to the animals, in a dose of 10 ml per kg body weight. One hour later the animals are sacrificed, their stomachs dissected out, opened along the greater curvature and the mucose examined for lesions. The average lesion length is expressed as percentage of the average lesion length found in the stomach mucosa of control animals.
Importantly, this test measures the active cytoprotective properties of the prostanoids, independent of the gastric secretion inhibition that these compounds may or may not show. The test is discussed more fully by Robert et al., Gastroenterology 77 (1979) 433, incorporated herein by reference.
methyl-7-oxa-9-oxo-Prostanoate derivatives were tested for cytoprotective properties. The compounds differed with respect to the nature of the C13 -C14 bond (triple, cis or trans double, or single), the substituent(s) at the 15-position and at the 16-position. […]
The optically pure compounds of Example XIX were tested for cytoprotective activity. The following results were obtained (Table III).

[1] = methyl-7-oxa-9-alpha-hydroxy prost-13,14-ynoate derivatives
[2] = 7-oxa-9-oxo-methyl prostanoate derivatives

Row | Structure (SMILES) | response vs control in vivo at 5 mg/kg [2] | inhibition in vivo at 5 mg/kg [2] | also measured
1 | CCCCC(C)(C)C(O)C#C[C@H]1CC[C@H](O)[C@@H]1OCCCCCC(=O)OC (relative stereo) |  |  | response vs control in vivo at 5 mg/kg [1]: 83%; inhibition in vivo at 5 mg/kg [1]: 17%
2 | CCCCCC(=O)C#C[C@H]1CC[C@H](O)[C@@H]1OCCCCCC(=O)O (relative stereo) |  |  | response vs control in vivo at 5 mg/kg [1]: 7%; inhibition in vivo at 5 mg/kg [1]: 93%
3 | CCCCCC(O)/C=C\[C@H]1CCC(=O)[C@@H]1OCCCCCC(=O)OC (relative stereo) [cis (R,S)OH H,H (7-oxa-9-oxo), methyl-15-hydroxy-7-oxa-9-oxo-cis-prost-13-14-enoate] | 31% | 69% | 
4 | CCCCCC(C)(O)/C=C\[C@H]1CCC(=O)[C@@H]1OCCCCCC(=O)OC (relative stereo) [cis (R,S)OH,Me H,H (7-oxa-9-oxo)] | 71% | 29% | 
5 | CCCCCC(=O)/C=C\[C@H]1CCC(=O)[C@@H]1OCCCCCC(=O)OC (relative stereo) [cis oxo H,H (7-oxa-9-oxo), methyl-9,15-dioxo-7-oxa-cis-prost-13,14-enoate] | 113% | -13% | 
6 | CCCCCC(O)C#C[C@H]1CC[C@H](O)[C@@H]1OCCCCCC(=O)OC (relative stereo) [methyl-9-alpha-hydroxy-15-hydroxy-7-oxa-Prost-13,14-ynoate] |  |  | response vs control in vivo at 5 mg/kg [1]: 93%; inhibition in vivo at 5 mg/kg [1]: 7%
7 | CCCCCC(C)(O)CC[C@H]1CCC(=O)[C@@H]1OCCCCCC(=O)OC (relative stereo) [single (R,S)OH,Me H,H (7-oxa-9-oxo)] | 67% | 33% | 
8 | CCCCCC(=O)CC[C@H]1CCC(=O)[C@@H]1OCCCCCC(=O)OC (relative stereo) [single oxo H,H (7-oxa-9-oxo)] | 128% | -28% | 
9 | CCCCCC(C)(O)/C=C/[C@H]1CCC(=O)[C@@H]1OCCCCCC(=O)OC (relative stereo) [trans (R,S)OH,Me H,H (7-oxa-9-oxo)] | 54% | 46% | 
10 | CCCCCC(=O)/C=C/[C@H]1CCC(=O)[C@@H]1OCCCCCC(=O)OC (relative stereo) [trans oxo H,H (7-oxa-9-oxo)] | 118% | -18% | 
11 | CCCCCC(O)C#C[C@H]1CCC(=O)[C@@H]1OCCCCCC(=O)OC (relative stereo) [triple (R,S)OH H,H (7-oxa-9-oxo), methyl 15-hydroxy-7-oxa-9-oxo-prost-13,14-ynoate] | 31% | 69% | 
12 | CCCCCC(C)(O)C#C[C@H]1CCC(=O)[C@@H]1OCCCCCC(=O)OC (relative stereo) [triple (R,S)OH,Me H,H (7-oxa-9-oxo)] | 82% | 18% | 
13 | CCCCCCC#C[C@H]1CC[C@H](O)[C@@H]1OCCCCCC(=O)OC (relative stereo) [triple H,H H,H (7-oxa-9-alpha-hydroxy)] |  |  | response vs control in vivo at 5 mg/kg [1]: 90%; inhibition in vivo at 5 mg/kg [1]: 10%
14 | CCCCCCC#C[C@H]1CCC(=O)[C@@H]1OCCCCCC(=O)OC (relative stereo) [triple H,H H,H (7-oxa-9-oxo)] | 81% | 19% | 
15 | CCCCCC(=O)C#C[C@H]1CC[C@H](O)[C@@H]1OCCCCCC(=O)OC (relative stereo) [triple oxo H,H (7-oxa-9-alpha-hydroxy), methyl 9-alpha-hydroxy-7-oxa-15-oxo-prost-13,14-ynoate] |  |  | response vs control in vivo at 5 mg/kg [1]: 20%; inhibition in vivo at 5 mg/kg [1]: 80%
16 | CCCCCC(=O)C#C[C@H]1CCC(=O)[C@@H]1OCCCCCC(=O)OC (relative stereo) [triple oxo H,H (7-oxa-9-oxo), methyl-9,15-dioxo-7-oxa-prost-13,14-ynoate] | 4% | 96% | cytoprotective activity (in words): the same
17 | CCCCC(C)(C)C(=O)C#C[C@H]1CCC(=O)[C@@H]1OCCCCCC(=O)OC (relative stereo) [triple oxo Me,Me (7-oxa-9-oxo)] | 16% | 84% | 
18 | CCCCC[C@H](O)C#CC1CCC(=O)C1OCCCCCC(=O)OC (stereo partly drawn) [(18), methyl-(S)-15-hydroxy-7-oxa-9-oxo-prost-13,14-ynoate] |  |  | cytoprotective activity (in words): high cytoprotective activity; % Protection: 96%
19 | CCCCC[C@@H](O)C#CC1CCC(=O)C1OCCCCCC(=O)OC (stereo partly drawn) [(19), methyl-(R)-15-hydroxy-7-oxa-9-oxo-prost-13,14-ynoate] |  |  | % Protection: -34%
